Measurements: patent publication US6642250B2, “1,8-naphthyridin-2(1H)-one derivatives” (Grelan Pharmaceutical Co., Ltd., priority 1999, dated 2003)
pIC50: −log10 of the molar value.

Assays:
[1] = molecular target: T1, PDE V (Sus scrofa, UniProt A0A287B475); experiment: PDE inhibition, type V PDE (cGMP substrate); format: biochemical; details: PDE V from porcine aortae, cGMP 1 μM; read-out: Inhibition of PDE Isoenzymes (IC50) V
T1 construct: Type V PDE was also separated from porcine aortae with an anion exchange chromatography and used herein
Method: (§1) The assays for PDE activity were conducted according to Nicholson et al. method (Br. J. Pharmacol., 97, 889 (1989)).
(§2) Among PDE isozymes, type I, II, III and IV PDEs as used herein were separated from porcine hearts by using an anion exchange chromatography. Type V PDE was also separated from porcine aortae with an anion exchange chromatography and used herein.
(§3) Each PDE isozyme was admixed with ethylene glycol (EG) to adjust the final EG concentration to 30%, then stored at −20° C. and diluted when used. The enzymatic activity for PDE I and V was measured using cGMP as a substrate while that for POE II, III and IV was measured using cAMP.
(§4) [^3H]-cAMP (962 GBq/mmol; Amersham, 25 μl (100,000 cpm)) or [^3H]-cGMP (962 GBq/mmol; Amersham, 25 μl (100,000 cpm)) was added together with each PDE isozyme (25 μl) to an incubation buffer solution with the composition given below to adjust the total volume to 250 μl. Each test compound was dissolved in DMSO to adjust the final concentration to 1% (2.5 μl/tube).
(§5) Incubation buffer solution (pH7.5):
(§6) Tris-HCl (50 mM), magnesium chloride (6 mM), dithiothreitol
(§7) (2.5 mM), 5-nucleotidase (4 μg/ml), bovine serum albumin
(§8) (0.23 mg/ml), and cAMP (1 μM) [or cGMP (1 μM)]
(§9) A mixture of the aforementioned test compound solution and the buffer solution was incubated at 30° C. for 20 minutes. The reaction was quenched by admixing with 1 ml of anion exchange resin slurry (AG1-X8, 200-400 meshes, chloride form; Bio-Rad) to absorb unreacted substrates.
(§10) After the reaction stopped, the mixture was centrifuged at 200×g for 10 minutes, and the resulting supernatant was collected with vials in 250 μl aliquots. To each vial was added 5 ml of ACS-II (scintillator, Amersham). The radioactivity was measured with a liquid scintillator counter for [^3H]-adenosine or [^3H]-guanosine and set as the PDE activity. The measurements were conducted under conditions wherein the enzymatic activity was elevated by adding calmodulin (20 U/ml; Amersham) and calcium chloride (0.1 mM) for PDE-I and cGMP (1 μM) for PDE II, respectively.
(§11) The % inhibition was calculated for test compounds, and IC50 (the concentration of each test compound required for 50% inhibition) was obtained by Probit method. The aforementioned rolipram ((−)-isomer, optical purity: 91% e.e.) known as the PDE IV inhibitor in the prior art was used for the reference compound in this assay.

[2] = molecular target: T2, PDE II (Sus scrofa, UniProt F1SUV3); experiment: PDE inhibition, type II PDE (cAMP substrate, cGMP added); format: biochemical; details: PDE II from porcine hearts, cAMP 1 μM; read-out: Inhibition of PDE Isoenzymes (IC50) II
T2 sequence (F1SUV3 1-945): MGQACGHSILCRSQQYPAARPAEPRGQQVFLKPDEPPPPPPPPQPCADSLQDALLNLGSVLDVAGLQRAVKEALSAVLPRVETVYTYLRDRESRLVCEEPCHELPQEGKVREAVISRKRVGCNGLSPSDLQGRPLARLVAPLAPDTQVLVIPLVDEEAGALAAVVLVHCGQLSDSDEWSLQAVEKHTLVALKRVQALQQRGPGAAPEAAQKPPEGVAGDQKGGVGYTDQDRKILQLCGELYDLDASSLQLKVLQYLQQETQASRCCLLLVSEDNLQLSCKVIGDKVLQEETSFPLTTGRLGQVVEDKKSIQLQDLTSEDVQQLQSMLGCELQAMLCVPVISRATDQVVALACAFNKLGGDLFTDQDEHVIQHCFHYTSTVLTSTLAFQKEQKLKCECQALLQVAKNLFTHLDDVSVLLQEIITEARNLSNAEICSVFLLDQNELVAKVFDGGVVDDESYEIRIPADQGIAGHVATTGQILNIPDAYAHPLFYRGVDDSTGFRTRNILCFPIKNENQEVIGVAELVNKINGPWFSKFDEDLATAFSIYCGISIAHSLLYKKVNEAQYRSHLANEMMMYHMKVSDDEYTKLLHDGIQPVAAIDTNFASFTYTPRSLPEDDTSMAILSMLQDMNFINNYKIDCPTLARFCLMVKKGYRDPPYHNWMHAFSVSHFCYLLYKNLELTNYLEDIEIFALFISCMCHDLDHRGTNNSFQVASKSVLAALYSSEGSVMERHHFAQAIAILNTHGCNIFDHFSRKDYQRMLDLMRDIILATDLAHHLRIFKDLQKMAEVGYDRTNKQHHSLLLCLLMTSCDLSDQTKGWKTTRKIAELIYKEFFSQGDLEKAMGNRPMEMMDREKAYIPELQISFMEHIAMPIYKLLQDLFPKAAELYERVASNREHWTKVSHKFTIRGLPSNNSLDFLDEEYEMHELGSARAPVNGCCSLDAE
Method: as §1, §2, §3, §4, §5, §6, §7, §8, §9, §10, §11

[3] = test system: T3, PDE IV; experiment: PDE inhibition, type IV PDE (cAMP substrate); format: biochemical; details: PDE IV from porcine hearts, cAMP 1 μM; read-out: Inhibition of PDE Isoenzymes (IC50) IV
T3 construct: other: PDE IV from porcine hearts, cAMP 1 μM
Method: as §1, §2, §3, §4, §5, §6, §7, §8, §9, §10, §11
Further, for a comparison with compounds as disclosed in JP, A, 63-159382 (1988), the PDE-inhibiting activity was also measured for Compounds A and D in Table 1 of JP, A, 63-159382 (1988).

[4] = test system: PDE I; experiment: PDE inhibition, type I PDE (cGMP substrate, calmodulin/CaCl2 added); format: biochemical; details: PDE I from porcine hearts, cGMP 1 μM; read-out: Inhibition of PDE Isoenzymes (IC50) I
Method: as §1, §2, §3, §4, §5, §6, §7, §8, §9, §10, §11

Compound | melting point | pIC50 [1] | pIC50 [2] | pIC50 [3] | pIC50 [4]
O=c1c(Cc2ccccn2)cc2cccnc2n1-c1cccc([N+](=O)[O-])c1 [Example 1, 1-(3-Nitrophenyl)-3-(pyridin-2-ylmethyl)-1,8-naphthyridin-2(1H)-one] | 229 to 231 °C | – | – | – | –
O=c1c(CCCc2ccncc2)cc2cccnc2n1-c1cccc(Cl)c1 [Example 9, 1-(3-Chlorophenyl)-3-[3-(pyridin-4-yl)propyl]-1,8-naphthyridin-2(1H)-one] | 148 to 149 °C | – | – | – | –
Cc1ccc2cc(CCCc3ccncc3)c(=O)n(-c3cccc([N+](=O)[O-])c3)c2n1 [Example 11, 7-Methyl-1-(3-nitrophenyl)-3-[3-(pyridin-4-yl)propyl]-1,8-naphthyridin-2(1H)-one] | 165 to 166 °C | – | – | – | –
CSc1cccc(-n2c(=O)c(CCCc3ccncc3)cc3ccc(C)nc32)c1 [Example 12, 7-Methyl-1-(3-methylthiophenyl)-3-[3-(pyridin-4-yl)propyl]-1,8-naphthyridin-2(1H)-one] | 158 to 159 °C | – | – | – | –
O=c1c(CCCCc2nc3ccccc3s2)cc2cccnc2n1-c1cccc([N+](=O)[O-])c1 [Example 22, 1-(3-Nitrophenyl)-3-[4-(benzothiazol-2-yl)butyl]-1,8-naphthyridin-2(1H)-one] | 167.5 to 169.5 °C | – | – | – | –
N#Cc1cccc(-n2c(=O)c(CCCc3ccncc3)cc3cccnc32)c1 [Example 25, 1-(3-Cyanophenyl)-3-[3-(pyridin-4-yl)propyl]-1,8-naphthyridin-2(1H)-one] | 202 to 203.5 °C | – | – | – | –
CS(=O)(=O)c1cccc(-n2c(=O)c(CCCc3ccncc3)cc3cccnc32)c1 [Example 26, 1-(3-Methylsulfonylphenyl)-3-[3-(pyridin-4-yl)propyl]-1,8-naphthyridin-2(1H)-one] | 127 to 131 °C | – | – | – | –
O=c1c(CCc2nc3ccccc3s2)cc2cccnc2n1-c1cccc([N+](=O)[O-])c1 [Example 29, 1-(3-Nitrophenyl)-3-[2-(benzothiazol-2-yl)ethyl]-1,8-naphthyridin-2(1H)-one] | 178 to 179 °C | – | – | – | –
N#Cc1cccc(-n2c(=O)c(Cc3ccncc3)cc3cccnc32)c1 [Example No. 3, 1-(3-Cyanophenyl)-3-(pyridin-4-ylmethyl)-1,8-naphthyridin-2(1H)-one] | 229 to 230 °C | 5.41 | < 4.00 | 5.92 | < 4.00

Other lines, results leading:

melting point | pIC50 [1] | pIC50 [2] | pIC50 [3] | pIC50 [4] | Compound
230 °C | – | – | – | – | O=c1c(Cc2ccncc2)cc2cccnc2n1-c1cccc([N+](=O)[O-])c1 [Example 4, 1-(3-Nitrophenyl)-3-(pyridin-4-ylmethyl)-1,8-naphthyridin-2(1H)-one]
189 to 192 °C | – | – | – | – | O=c1c(CCCCCCCc2ccncc2)cc2cccnc2n1-c1cccc([N+](=O)[O-])c1 [Example 18, 1-(3-Nitrophenyl)-3-[7-(pyridin-4-yl)heptyl]-1,8-naphthyridin-2(1H)-one]
175 to 176 °C | – | – | – | – | O=c1c(CCc2cccs2)cc2cccnc2n1-c1cccc([N+](=O)[O-])c1 [Example 19, 1-(3-Nitrophenyl)-3-[2-(2-thienyl)ethyl]-1,8-naphthyridin-2(1H)-one]
166 to 167 °C | – | – | – | – | O=c1c(CCCc2ccco2)cc2cccnc2n1-c1cccc([N+](=O)[O-])c1 [Example 20, 1-(3-Nitrophenyl)-3-[3-(2-furyl)propyl]-1,8-naphthyridin-2(1H)-one]
185 to 186 °C | – | – | – | – | O=c1c(CCCc2ccoc2)cc2cccnc2n1-c1cccc([N+](=O)[O-])c1 [Example 21, 1-(3-Nitrophenyl)-3-[3-(3-furyl)propyl]-1,8-naphthyridin-2(1H)-one]
201 to 202 °C | – | – | – | – | O=c1c(CCCc2ccccn2)cc2cccnc2n1-c1cccc([N+](=O)[O-])c1 [Example 28, 1-(3-Nitrophenyl)-3-[3-(pyridin-2-yl)propyl]-1,8-naphthyridin-2(1H)-one]
185 to 186 °C | – | – | – | – | O=c1c(CCCc2nc3ccccc3s2)cc2cccnc2n1-c1cccc([N+](=O)[O-])c1 [Example 30, 1-(3-Nitrophenyl)-3-[3-(benzothiazol-2-yl)propyl]-1,8-naphthyridin-2(1H)-one]
198 to 199 °C | – | – | – | – | O=c1c(CCCc2nccs2)cc2cccnc2n1-c1cccc([N+](=O)[O-])c1 [Example 31, 1-(3-Nitrophenyl)-3-[3-(thiazol-2-yl)propyl]-1,8-naphthyridin-2(1H)-one]
163 to 165 °C | 4.89 | 4.22 | 5.92 | 4.21 | O=c1c(CCCCc2ccccn2)cc2cccnc2n1-c1cccc([N+](=O)[O-])c1 [Example No. 13, 1-(3-Nitrophenyl)-3-[4-(pyridin-2-yl)butyl]-1,8-naphthyridin-2(1H)-one]
168.8 to 169.6 °C | 5.06 | 4.33 | 5.85 | 4.00 | O=c1c(CCCCc2ccncc2)cc2cccnc2n1-c1cccc([N+](=O)[O-])c1 [Example No. 15, 1-(3-Nitrophenyl)-3-[4-(pyridin-4-yl)butyl]-1,8-naphthyridin-2(1H)-one]
188.8 to 189.6 °C | < 4.00 | < 4.00 | 5.66 | < 4.00 | O=c1c(CCCCCc2ccncc2)cc2cccnc2n1-c1cccc([N+](=O)[O-])c1 [Example No. 17, 1-(3-Nitrophenyl)-3-[5-(pyridin-4-yl)pentyl]-1,8-naphthyridin-2(1H )-one]
